Source: patent publication US8173813B2, “Quinolone and tetrahydroquinolone and related compounds having NOS inhibitory activity” (NeurAxon, Inc., priority 2007, dated 2012)
Where two headings read alike, the source gives them in different places.

Legend:
Format in all cases: biochemical
[1] = target: Nitric oxide synthase (neuronal, human recombinant) nNOS (Homo sapiens, UniProt P29475); test: Human nNOS enzyme assay ([3H]L-arginine to [3H]L-citrulline)
[2] = target: Nitric oxide synthase (endothelial, human recombinant) eNOS (Homo sapiens, UniProt P29474); test: Human eNOS enzyme assay ([3H]L-arginine to [3H]L-citrulline)
Chain of Nitric oxide synthase (endothelial, human recombinant) eNOS (P29474 2-1203): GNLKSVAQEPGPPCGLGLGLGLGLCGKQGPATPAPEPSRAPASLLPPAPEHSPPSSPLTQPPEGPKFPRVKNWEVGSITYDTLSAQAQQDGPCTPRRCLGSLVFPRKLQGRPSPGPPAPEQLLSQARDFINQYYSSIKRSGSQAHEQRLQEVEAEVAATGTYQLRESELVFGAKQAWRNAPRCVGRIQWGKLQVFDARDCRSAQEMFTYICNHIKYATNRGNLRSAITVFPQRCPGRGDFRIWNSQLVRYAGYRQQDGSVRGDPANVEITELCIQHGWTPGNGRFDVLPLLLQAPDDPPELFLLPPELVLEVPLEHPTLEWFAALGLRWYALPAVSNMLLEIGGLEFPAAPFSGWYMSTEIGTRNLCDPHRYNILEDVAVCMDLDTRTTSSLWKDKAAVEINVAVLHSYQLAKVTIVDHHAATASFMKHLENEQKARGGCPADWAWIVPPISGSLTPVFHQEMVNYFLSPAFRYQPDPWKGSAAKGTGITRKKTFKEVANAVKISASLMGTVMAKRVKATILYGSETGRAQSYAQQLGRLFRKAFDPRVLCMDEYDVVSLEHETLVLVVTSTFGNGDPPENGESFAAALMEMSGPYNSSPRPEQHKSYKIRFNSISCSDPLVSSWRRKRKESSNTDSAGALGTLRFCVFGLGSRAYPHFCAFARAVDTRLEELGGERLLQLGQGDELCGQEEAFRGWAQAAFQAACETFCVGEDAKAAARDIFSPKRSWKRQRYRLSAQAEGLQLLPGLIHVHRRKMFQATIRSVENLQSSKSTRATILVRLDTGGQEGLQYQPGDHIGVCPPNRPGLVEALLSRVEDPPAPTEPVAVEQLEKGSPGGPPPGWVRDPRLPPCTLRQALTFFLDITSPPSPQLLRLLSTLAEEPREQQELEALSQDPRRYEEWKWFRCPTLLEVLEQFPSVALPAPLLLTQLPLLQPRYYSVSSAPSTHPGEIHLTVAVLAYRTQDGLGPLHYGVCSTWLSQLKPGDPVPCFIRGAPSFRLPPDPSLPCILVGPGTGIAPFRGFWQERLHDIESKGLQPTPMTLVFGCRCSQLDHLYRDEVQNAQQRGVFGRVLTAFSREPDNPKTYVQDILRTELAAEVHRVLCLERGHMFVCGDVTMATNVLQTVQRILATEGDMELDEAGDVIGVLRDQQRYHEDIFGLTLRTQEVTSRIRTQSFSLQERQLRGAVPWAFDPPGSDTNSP

[3] = target: Recombinant human inducible NOS (iNOS) (Homo sapiens, UniProt P35228); test: Human iNOS enzyme assay, radiometric
Chain of Recombinant human inducible NOS (iNOS) (P35228 whole entry): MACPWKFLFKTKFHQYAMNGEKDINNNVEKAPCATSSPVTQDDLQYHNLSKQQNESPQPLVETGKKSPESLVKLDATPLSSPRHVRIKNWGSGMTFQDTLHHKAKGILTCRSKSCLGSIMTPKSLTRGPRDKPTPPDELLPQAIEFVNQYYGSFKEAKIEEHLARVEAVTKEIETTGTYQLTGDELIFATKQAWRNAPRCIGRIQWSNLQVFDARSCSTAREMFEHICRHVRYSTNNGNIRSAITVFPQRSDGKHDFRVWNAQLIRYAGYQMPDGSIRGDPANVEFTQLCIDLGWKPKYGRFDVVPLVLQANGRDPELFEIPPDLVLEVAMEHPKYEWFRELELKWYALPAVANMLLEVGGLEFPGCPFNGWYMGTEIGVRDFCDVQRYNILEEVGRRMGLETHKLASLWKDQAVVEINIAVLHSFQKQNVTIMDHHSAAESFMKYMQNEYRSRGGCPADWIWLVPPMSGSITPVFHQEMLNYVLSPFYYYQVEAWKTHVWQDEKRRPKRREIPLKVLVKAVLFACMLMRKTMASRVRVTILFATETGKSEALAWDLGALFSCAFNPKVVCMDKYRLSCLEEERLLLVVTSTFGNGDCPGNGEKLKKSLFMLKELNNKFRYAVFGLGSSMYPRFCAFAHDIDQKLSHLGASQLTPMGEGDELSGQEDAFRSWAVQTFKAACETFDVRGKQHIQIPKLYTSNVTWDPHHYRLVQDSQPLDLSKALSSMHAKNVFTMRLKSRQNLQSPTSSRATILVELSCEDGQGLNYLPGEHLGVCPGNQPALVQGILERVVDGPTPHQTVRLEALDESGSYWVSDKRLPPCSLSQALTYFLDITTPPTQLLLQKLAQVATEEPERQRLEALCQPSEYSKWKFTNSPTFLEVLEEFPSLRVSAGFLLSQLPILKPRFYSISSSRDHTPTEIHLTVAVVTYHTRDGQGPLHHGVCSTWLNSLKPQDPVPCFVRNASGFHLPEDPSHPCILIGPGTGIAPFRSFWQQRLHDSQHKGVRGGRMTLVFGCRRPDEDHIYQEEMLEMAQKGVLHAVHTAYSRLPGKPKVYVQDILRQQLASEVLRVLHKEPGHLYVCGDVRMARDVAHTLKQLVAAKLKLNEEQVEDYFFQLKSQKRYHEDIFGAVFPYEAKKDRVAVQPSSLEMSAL

[4] = human recombinant iNOS, values without parentheses, read-out: hiNOS IC50
[5] = human recombinant nNOS, values without parentheses, read-out: hnNOS IC50
[6] = human recombinant eNOS, values without parentheses, read-out: heNOS IC50
[7] = human enzymes, ratio of eNOS IC50 to nNOS IC50

Chain of Nitric oxide synthase (neuronal, human recombinant) nNOS (P29475 whole entry): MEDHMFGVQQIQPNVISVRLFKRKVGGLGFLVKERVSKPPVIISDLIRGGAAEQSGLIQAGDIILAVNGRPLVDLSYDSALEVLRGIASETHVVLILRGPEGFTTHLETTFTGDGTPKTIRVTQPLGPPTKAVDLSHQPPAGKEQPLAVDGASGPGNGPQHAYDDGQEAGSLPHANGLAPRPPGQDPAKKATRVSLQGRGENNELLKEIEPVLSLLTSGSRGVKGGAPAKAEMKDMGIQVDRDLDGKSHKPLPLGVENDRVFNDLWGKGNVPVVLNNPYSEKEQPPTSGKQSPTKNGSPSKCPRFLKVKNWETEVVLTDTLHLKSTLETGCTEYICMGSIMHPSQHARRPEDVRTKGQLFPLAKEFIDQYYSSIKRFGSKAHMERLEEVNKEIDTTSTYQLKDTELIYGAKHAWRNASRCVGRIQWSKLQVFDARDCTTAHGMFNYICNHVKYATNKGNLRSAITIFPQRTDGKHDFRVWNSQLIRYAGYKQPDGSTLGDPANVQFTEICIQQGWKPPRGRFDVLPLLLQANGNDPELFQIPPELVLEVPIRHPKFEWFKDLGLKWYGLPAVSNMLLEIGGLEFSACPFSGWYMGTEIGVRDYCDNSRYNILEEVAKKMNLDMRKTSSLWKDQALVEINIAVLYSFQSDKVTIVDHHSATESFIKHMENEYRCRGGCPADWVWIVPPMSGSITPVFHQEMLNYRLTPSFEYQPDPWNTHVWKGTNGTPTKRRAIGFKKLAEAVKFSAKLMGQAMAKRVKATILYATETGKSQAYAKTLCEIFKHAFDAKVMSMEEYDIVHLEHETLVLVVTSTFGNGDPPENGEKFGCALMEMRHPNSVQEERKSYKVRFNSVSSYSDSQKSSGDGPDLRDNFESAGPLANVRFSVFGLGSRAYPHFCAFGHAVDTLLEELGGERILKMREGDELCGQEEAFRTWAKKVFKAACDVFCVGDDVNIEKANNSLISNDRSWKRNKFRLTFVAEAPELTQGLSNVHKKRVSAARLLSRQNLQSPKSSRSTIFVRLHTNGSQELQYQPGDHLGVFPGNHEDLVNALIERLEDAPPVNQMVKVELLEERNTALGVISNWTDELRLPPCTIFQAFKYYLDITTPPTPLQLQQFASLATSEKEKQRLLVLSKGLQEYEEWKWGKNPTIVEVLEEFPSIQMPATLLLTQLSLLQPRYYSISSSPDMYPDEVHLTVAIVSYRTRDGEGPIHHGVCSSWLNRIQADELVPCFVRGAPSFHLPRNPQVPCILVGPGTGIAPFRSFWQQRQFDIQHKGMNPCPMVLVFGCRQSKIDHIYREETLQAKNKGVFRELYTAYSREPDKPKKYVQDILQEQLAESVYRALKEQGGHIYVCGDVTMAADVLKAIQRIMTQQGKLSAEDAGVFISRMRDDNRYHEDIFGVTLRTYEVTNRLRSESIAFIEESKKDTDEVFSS

CCN(CC)CCN1C(=O)CCc2cc(NC(=N)c3cccs3)ccc21 [Example 2, N-(1-(2-(diethylamino)ethyl)-2-oxo-1,2,3,4-tetrahydroquinolin-6-yl)thiophene-2-carboximidamide]
IC50 ([1]; read-out: hnNOS IC50): 2210 nM | IC50 ([2]; read-out: heNOS IC50): 73.6 µM | IC50 [3, 4]: 22 µM

N=C(Nc1ccc2c(c1)CCC(=O)N2CCCN1CCOCC1)c1cccs1 [Example 5, N-(1-(3-morpholinopropyl)-2-oxo-1,2,3,4-tetrahydroquinolin-6-yl)thiophene-2-carboximidamide]
Selectivity eNOS/nNOS [1]: 19.2 | IC50 [1, 5]: 5460 nM | IC50 [2, 6]: 105 µM

N=C(Nc1ccc2c(c1)CCC(=O)N2CCN1CCCC1)c1cccs1 [Example 6, N-(2-oxo-1-(2-(pyrrolidin-1-yl)ethyl)-1,2,3,4-tetrahydroquinolin-6-yl)thiophene-2-carboximidamide]
IC50 [1, 5]: 165 nM | IC50 ([2]; read-out: heNOS IC50): 29.8 µM | IC50 [3, 4]: > 100 µM

CCN(CC)CCCN1C(=O)CCc2cc(NC(=N)c3cccs3)ccc21 [Example 7, N-(1-(3-(diethylamino)propyl)-2-oxo-1,2,3,4-tetrahydroquinolin-6-yl)thiophene-2-carboximidamide]
Selectivity eNOS/nNOS [1]: 16 | IC50 [1, 5]: 869 nM | IC50 [2, 6]: 13.9 µM | IC50 [3, 4]: > 100 µM

N=C(Nc1ccc2c(c1)CCC(=O)N2CCCN1CCCC1)c1cccs1 [Example 8, N-(1-(3-(pyrrolidin-1-yl)propyl)-2-oxo-1,2,3,4-tetrahydroquinolin-6-yl)thiophene-2-carboximidamide]
IC50 ([2]; read-out: heNOS IC50): 24.5 µM

N=C(Nc1ccc2c(c1)CCC(=O)N2CCCN1CCCCC1)c1cccs1 [Example 9, N-(1-(3-(piperidin-1-yl)propyl)-2-oxo-1,2,3,4-tetrahydroquinolin-6-yl)thiophene-2-carboximidamide]
Selectivity eNOS/nNOS [1, 7]: 12.8 | IC50 [1, 5]: 798 nM | IC50 [2, 6]: 10.2 µM

CN(C)CCCC1Cc2cc(NC(=N)c3cccs3)ccc2NC1=O.Cl.Cl (stereo not drawn) [Example 10, N-(3-(3-(dimethylamino)propyl)-2-oxo-1,2,3,4-tetrahydroquinolin-6-yl)thiophene-2-carboximidamide dihydrochloride]
Selectivity eNOS/nNOS [1, 7]: 54.5 | IC50 [1, 5]: 198 nM | IC50 [2, 6]: 10.8 µM | IC50 [3, 4]: > 100 µM

CN1CCCC1CCN1C(=O)CCc2cc(NC(=N)c3cccs3)ccc21 (stereo not drawn) [Example 13, N-(1-(2-(1-methylpyrrolidin-2-yl)ethyl)-2-oxo-1,2,3,4-tetrahydroquinolin-6-yl)thiophene-2-carboximidamide]
Selectivity eNOS/nNOS [1, 7]: 62.6 | IC50 [1, 5]: 1100 nM | IC50 [2, 6]: 68.9 µM

CC(CN1C(=O)CCc2cc(NC(=N)c3cccs3)ccc21)N1CCCC1 (stereo not drawn) [Example 15, N-(2-oxo-1-(2-(pyrrolidin-1-yl)propyl)-1,2,3,4-tetrahydroquinolin-6-yl)thiophene-2-carboximidamide]
Selectivity eNOS/nNOS [1, 7]: 9.1 | IC50 [1, 5]: 5800 nM | IC50 [2, 6]: 52.6 µM | IC50 [3, 4]: > 100 µM

CC(CN1CCCc2cc(NC(=N)c3cccs3)ccc21)N1CCCC1 (stereo not drawn) [Example 16, N-(1-(2-(pyrrolidin-1-yl)propyl)-1,2,3,4-tetrahydroquinolin-6-yl)thiophene-2-carboximidamide]
Selectivity eNOS/nNOS [1, 7]: 48.1 | IC50 [1, 5]: 700 nM | IC50 [2, 6]: 33.7 µM | IC50 [3, 4]: 19.4 µM

CC1C(=O)N(C2CCN(C)CC2)c2ccc(NC(=N)c3cccs3)cc21 (stereo not drawn) [Example 17, N-(3-Methyl-1-(1-methylpiperidin-4-yl)-2-oxoindolin-5-yl)thiophene-2-carboximidamide]
Selectivity eNOS/nNOS [1]: 31 | IC50 ([1]; hnNOS IC50): 4900 nM | IC50 ([2]; heNOS IC50): 155 µM | IC50 ([3]; hiNOS IC50): 57 µM

CN1CCC(N2CCCc3cc(NC(=N)c4cccs4)ccc32)CC1 [Example 18, N-(1-(1-methylpiperidin-4-yl)-1,2,3,4-tetrahydroquinolin-6-yl)thiophene-2-carboximidamide]
Selectivity eNOS/nNOS [1]: 5.7 | IC50 ([1]; hnNOS IC50): 8800 nM | IC50 ([2]; heNOS IC50): 50 µM | IC50 ([3]; hiNOS IC50): > 100 µM

CN1CCC(N2C(=O)CCc3cc(NC(=N)c4cccs4)ccc32)CC1 [Example 22, N-(1-(1-Methylpiperidin-4-yl)-2-oxo-1,2,3,4-tetrahydroquinolin-6-yl)thiophene-2-carboximidamide]
Selectivity eNOS/nNOS [1]: 87.8 | IC50 ([1]; hnNOS IC50): 1720 nM | IC50 ([2]; heNOS IC50): 151 µM | IC50 ([3]; hiNOS IC50): > 100 µM

CN(C)CCN1C(=O)CCCc2cc(NC(=N)c3cccs3)ccc21 [Example 25, N-(1-(2-(Dimethylamino)ethyl)-2-oxo-2,3,4,5-tetrahydro-1H-benzo[b]azepin-7-yl)thiophene-2-carboximidamide]
Selectivity eNOS/nNOS [1, 7]: 12.3 | IC50 [1, 5]: 12300 nM | IC50 [2, 6]: 151 µM | IC50 [3, 4]: > 100 µM

N=C(Nc1ccc2c(c1)CCCC(=O)N2CCN1CCCC1)c1cccs1 [Example 26, N-(2-Oxo-1-(2-(pyrrolidin-1-yl)ethyl)-2,3,4,5-tetrahydro-1H-benzo[b]azepin-7-yl)thiophene-2-carboximidamide]
Selectivity eNOS/nNOS [1, 7]: 8.1 | IC50 [1, 5]: 9910 nM | IC50 [2, 6]: 80.1 µM | IC50 [3, 4]: > 100 µM

CN(C)CCN1C(=O)CCCc2cccc(NC(=N)c3cccs3)c21 [Example 33, N-(1-(2-(Dimethylamino)ethyl)-2-oxo-2,3,4,5-tetrahydro-1H-benzo[b]azepin-9-yl)thiophene-2-carboximidamide]
Selectivity eNOS/nNOS [1, 7]: 90 | IC50 [1, 5]: 2200 nM | IC50 [2, 6]: 193 µM | IC50 [3, 4]: > 100 µM

CNCCN1C(=O)CCc2cc(NC(=N)c3cccs3)ccc21 [Example 34, N-(1-(2-(Methylamino)ethyl)-2-oxo-1,2,3,4-tetrahydroquinolin-6-yl)thiophene-2-carboximidamide]
Selectivity eNOS/nNOS [1, 7]: 115 | IC50 [1, 5]: 390 nM | IC50 [2, 6]: 45.1 µM | IC50 [3, 4]: 1.28 µM

CNCCN1CCCCc2cc(NC(=N)c3cccs3)ccc21 [Example 36, N-(1-(2-(Methylamino)ethyl)-2,3,4,5-tetrahydro-1H-benzo[b]azepin-7-yl)thiophene-2-carboximidamide]
IC50 [1, 5]: 380 nM | IC50 ([2]; read-out: heNOS IC50): 47.1 µM

CN1CCCC1CCN1CCCCc2cc(NC(=N)c3cccs3)ccc21 (stereo not drawn) [Example 45, N-(1-(2-(1-Methylpyrrolidin-2-yl)ethyl)-2,3,4,5-tetrahydro-1H-benzo[b]azepin-7-yl)thiophene-2-carboximidamide]
IC50 [1, 5]: 1800 nM | IC50 ([2]; read-out: heNOS IC50): 30.8 µM

CN1CCC(N2CCCCc3cc(NC(=N)c4cccs4)ccc32)C1 (stereo not drawn) [Example 46, N-(1-(1-Methylpyrrolidin-3-yl)-2,3,4,5-tetrahydro-1H-benzo[b]azepin-7-yl)thiophene-2-carboximidamide]
IC50 ([1]; read-out: hnNOS IC50): 80 nM | IC50 ([2]; read-out: heNOS IC50): 60.5 µM

N=C(Nc1ccc2c(c1)CCN2C1CCNC1)c1cccs1 (stereo not drawn) [Example 49, N-(1-(Pyrrolidin-3-yl)indolin-5-yl)thiophene-2-carboximidamide]
IC50 [1, 5]: 80 nM | IC50 [2, 6]: 5.45 µM

CN1CCC(N2CCc3cc(NC(=N)c4cccs4)ccc32)C1 (stereo not drawn) [Example 50, N-(1-(1-Methylpyrrolidin-3-yl)indolin-5-yl)thiophene-2-carboximidamide]
IC50 [1, 5]: 430 nM | IC50 [2, 6]: 21.2 µM

CCN(C)CCN1CCCc2cc(NC(=N)c3cccs3)ccc21 [Example 51, N-(1-(2-(ethyl(methyl)amino)ethyl)-1,2,3,4-tetrahydroquinolin-6-yl)thiophene-2-carboximidamide]
Selectivity eNOS/nNOS [1]: 370 | IC50 [1, 5]: 90 nM | IC50 ([2]; read-out: heNOS IC50): 33.3 µM

CNCCN1CCCc2cc(NC(=N)c3cccs3)cc(F)c21.Cl.Cl [Example 52, N-(8-fluoro-1-(2-(methylamino)ethyl)-1,2,3,4-tetrahydroquinolin-6-yl)thiophene-2-carboximidamide dihydrochloride]
Selectivity eNOS/nNOS [1, 7]: 45 | IC50 [1, 5]: 300 nM | IC50 [2, 6]: 13.5 µM

CCN(CC)CCN1CCCc2cc(NC(=N)c3cccs3)ccc21 [Example 53, N-(1-(2-(diethylamino)ethyl)-1,2,3,4-tetrahydroquinolin-6-yl)thiophene-2-carboximidamide]
IC50 [1, 5]: 250 nM

CNCCCN1CCCc2cc(NC(=N)c3cccs3)ccc21 [Example 63, N-(1-(3-(methylamino)propyl)-2,3,4-tetrahydroquinolin-6-yl)thiophene-2-carboximidamide]
IC50 [1, 5]: 235 nM | IC50 ([2]; read-out: heNOS IC50): 22.5 µM

N=C(Nc1ccc2c(c1)CCCN2CCN1CCOCC1)c1cccs1 [Example 64, N-(1-(2-morpholinoethyl)-1,2,3,4-tetrahydroquinolin-6-yl)thiophene-2-carboximidamide]
Selectivity eNOS/nNOS [1, 7]: 121 | IC50 [1, 5]: 680 nM | IC50 [2, 6]: 82.5 µM

N=C(Nc1ccc2c(c1)CCN2CCN1CCCC1)c1cccs1 [Example 67, N-(1-(2-(Pyrrolidin-1-yl)ethyl)indolin-5-yl)thiophene-2-carboximidamide]
Selectivity eNOS/nNOS [1, 7]: 292 | IC50 [1, 5]: 92 nM | IC50 [2, 6]: 26.9 µM

CN(C)CCN1CCc2cc(NC(=N)c3cccs3)ccc21 [Example 68, N-(1-(2-(Dimethylamino)ethyl)indolin-5-yl)thiophene-2-carboximidamide]
Selectivity eNOS/nNOS [1, 7]: 316 | IC50 [1, 5]: 41 nM | IC50 [2, 6]: 12.9 µM

CN(CCO)CCCN1CCCc2cc(NC(=N)c3cccs3)ccc21 [Example 69, N-(1-(3-((2-Hydroxyethyl)(methyl)amino)propyl)-1,2,3,4-tetrahydroquinolin-6-yl)thiophene-2-carboximidamide]
Selectivity eNOS/nNOS [1, 7]: 511 | IC50 [1, 5]: 78 nM | IC50 [2, 6]: 39.9 µM

CNC1CCC(N2CCc3cc(NC(=N)c4cccs4)ccc32)CC1 (stereo not drawn) [Example 70, N-(1-(4-(Methylamino)cyclohexyl)indolin-5-yl)thiophene-2-carboximidamide]
Selectivity eNOS/nNOS [1, 7]: 86.5 | IC50 [1, 5]: 210 nM | IC50 [2, 6]: 17.9 µM

CNC1CCC(N2CCc3cc(NC(=N)c4cccs4)ccc32)CC1 (stereo not drawn) [Example 71, N-(1-(4-(Methylamino)cyclohexyl)indolin-5-yl)thiophene-2-carboximidamide]
IC50 [1, 5]: 105 nM | IC50 [2, 6]: 34.1 µM
